Laboratory results from a melting point compilation (Tetko et al.; mined from patent text by program, amines drawn as free bases though some values may be those of a salt).

Row | Structure (SMILES) | melting point
1 | N#Cc1nn(-c2c(Cl)cc(C(F)(F)F)cc2Cl)c(-n2cccc2)c1S(=O)C(F)(F)F (configuration not stated) | 165 to 167 °C
2 | COc1cc(C)nc(NC(=O)NS(=O)(=O)c2ccccc2OC(F)(F)F)n1 | 162 °C
